“And” between values parts separate entries of the source, which are not always exact repeats. Identical values can stand only once.
Key:
[1] = Closed cell (Static) method
[2] = molar heat capacity at constant pressure

NCCO [2-aminoethan-1-ol]
vapor or sublimation pressure, [1]
Settings | Crystal | Metastable liquid
258.17 K | 0.00078 kPa and 0.00077 kPa and 0.00076 kPa | –
263.17 K | 0.00142 kPa | –
268.17 K | 0.00264 kPa and 0.00265 kPa | –
273.65 K | 0.0052 kPa and 0.00519 kPa and 0.00518 kPa | 0.00646 kPa
275.65 K | 0.00658 kPa | 0.00785 kPa
278.15 K | 0.00883 kPa and 0.00884 kPa | 0.00997 kPa and 0.00998 kPa
280.65 K | 0.01183 kPa and 0.01185 kPa | 0.01262 kPa and 0.01263 kPa
283.15 K | 0.01576 kPa and 0.01575 kPa | 0.0159 kPa and 0.01591 kPa and 0.01587 kPa
285.65 K | – | 0.0199 kPa and 0.01992 kPa
288.15 K | – | 0.02494 kPa and 0.02505 kPa and 0.02501 kPa
290.65 K | – | 0.03092 kPa and 0.03099 kPa
293.15 K | – | 0.03842 kPa and 0.03848 kPa and 0.03849 kPa
295.65 K | – | 0.04735 kPa and 0.04742 kPa and 0.04744 kPa
298.15 K | – | 0.05877 kPa and 0.05861 kPa and 0.05859 kPa
300.65 K | – | 0.07124 kPa and 0.07125 kPa and 0.07143 kPa
303.15 K | – | 0.08725 kPa and 0.08736 kPa
303.16 K | – | 0.08722 kPa

[2], 100 kPa, Ideal gas
Settings | molar heat capacity at constant pressure [J/K/mol]
100 K | 42.58
150 K | 53.66
200 K | 64.26
250 K | 74.41
273.15 K | 79.16
298.15 K | 84.38
300 K | 84.78
400 K | 106.54
500 K | 127.9
600 K | 146.98
700 K | 163.08
800 K | 176.25
900 K | 186.86
1000 K | 195.39

[2], 101.33 kPa, Metastable liquid, Large sample (1 g) DSC
Settings | molar heat capacity at constant pressure
265.75 K | 160.55 J/K/mol
270.85 K | 161.8 J/K/mol
275.96 K | 162.46 J/K/mol
281.07 K | 163.71 J/K/mol
286.17 K | 164.54 J/K/mol
291.28 K | 165.54 J/K/mol and 165.87 J/K/mol
296.38 K | 166.54 J/K/mol and 167.29 J/K/mol
301.49 K | 168.12 J/K/mol and 167.79 J/K/mol
306.59 K | 169.2 J/K/mol and 169.12 J/K/mol
311.69 K | 170.28 J/K/mol and 170.53 J/K/mol
316.8 K | 171.36 J/K/mol and 171.69 J/K/mol
321.9 K | 172.61 J/K/mol and 173.11 J/K/mol
327.01 K | 174.1 J/K/mol and 174.27 J/K/mol
332.12 K | 175.68 J/K/mol and 175.35 J/K/mol
337.22 K | 176.68 J/K/mol and 177.18 J/K/mol
342.33 K | 178.1 J/K/mol and 178.59 J/K/mol
347.43 K | 179.51 J/K/mol and 179.43 J/K/mol
352.54 K | 181.26 J/K/mol and 181.34 J/K/mol
